Results published in the OligoGym collection.
Where “and” joins values, the source holds several entries; their conditions need not be identical. Identical values can stand only once. After the bases stand the sugars from the 5' end (letter, count) and the backbone: PS all phosphorothioate, else s phosphorothioate and o phosphodiester by linkage. Methylation of C is not given here. e = 2'-O-(2-methoxyethyl) (MOE); k = constrained ethyl (cEt); d = 2'-deoxy (DNA)

Molecular target: IRF4
Details: ASO

GGCAGACCTTATGCTT (sugars k3 d10 k3, PS)
target mRNA inhibition (SK-MEL-28, 4 µM): 21%

GGCAGCACCGTGTGGA (sugars k3 d10 k3, PS)
target mRNA inhibition (SK-MEL-28, 4 µM): 53%

GGCAGTTCTTTCAGCA (sugars k3 d10 k3, PS)
target mRNA inhibition (SK-MEL-28, 4 µM): 37%

GGCATCATGTAGTTGT (sugars k3 d10 k3, PS)
target mRNA inhibition (MM.1R, 1 µM): -1%

GGCCACCGACTCTTTT (sugars k3 d10 k3, PS)
target mRNA inhibition (SK-MEL-28, 4 µM): 13%

GGCCGCCGTGAGCTTG (sugars k3 d10 k3, PS)
target mRNA inhibition (SK-MEL-28, 4 µM): 3%

GGCCGGCCCGGGCGCA (sugars k3 d10 k3, PS)
target mRNA inhibition (SK-MEL-28, 4 µM): 1%

GGCCTGGAGGTGACGC (sugars k3 d10 k3, PS)
target mRNA inhibition (SK-MEL-28, 4 µM): 41%

GGCCTTAATGGTGATT (sugars k3 d10 k3, PS)
target mRNA inhibition (MM.1R, 1 µM): -16%

GGCCTTGGAGCCCAAA (sugars k3 d10 k3, PS)
target mRNA inhibition (SK-MEL-28, 4 µM): 20%

GGCCTTTACAAAGAAC (sugars k3 d10 k3, PS)
target mRNA inhibition (SK-MEL-28, 4 µM): -19%

GGCGCATAGGTCCTTC (sugars k3 d10 k3, PS)
target mRNA inhibition (MM.1R, 1 µM): -7%

GGCGGATAGATCTGTG (sugars k3 d10 k3, PS)
target mRNA inhibition (SK-MEL-28, 4 µM): 51%

GGCTAATGAAATGTCA (sugars k3 d10 k3, PS)
target mRNA inhibition (SK-MEL-28, 4 µM): 64%

GGCTCATGGACATCTG (sugars k3 d10 k3, PS)
target mRNA inhibition (SK-MEL-28, 4 µM): 36%

GGCTCTGCAAACGACA (sugars k3 d10 k3, PS)
target mRNA inhibition (MM.1R, 1 µM): 0%

GGCTGAAACGGTCAGC (sugars k3 d10 k3, PS)
target mRNA inhibition (MM.1R, 1 µM): -27%

GGCTGATAATTAATCT (sugars k3 d10 k3, PS)
target mRNA inhibition (SK-MEL-28, 4 µM): 47%

GGGAACAAAAGGTTCC (sugars k3 d10 k3, PS)
target mRNA inhibition (SK-MEL-28, 4 µM): -11%

GGGAATCCTTAATTAT (sugars k3 d10 k3, PS)
target mRNA inhibition (SK-MEL-28, 4 µM): 12%

GGGATTATATACTGGT (sugars k2 d9 e3 k2, PS)
target mRNA inhibition (MM.1R, 1 µM): 35%

GGGATTATATACTGGT (sugars kddddddddddkekek, PS)
target mRNA inhibition (MM.1R, 1 µM): 34%

GGGATTATATACTGGT (sugars kkddddddddddkeke, PS)
target mRNA inhibition (MM.1R, 1 µM): 46%

GGGATTATATACTGGT (sugars kkdddddddddekeke, PS)
target mRNA inhibition (MM.1R, 1 µM): 34%

GGGCACAAGCATAAAA (sugars k3 d10 k3, PS)
target mRNA inhibition (SK-MEL-28, 4 µM): 20%

GGGCACCCCGCCCCGA (sugars k3 d10 k3, PS)
target mRNA inhibition (SK-MEL-28, 4 µM): 1%

GGGCAGGTTTCATTTC (sugars k3 d10 k3, PS)
target mRNA inhibition (SK-MEL-28, 4 µM): 32%

GGGCTGTCCCTAGTGC (sugars k3 d10 k3, PS)
target mRNA inhibition (SK-MEL-28, 4 µM): -9%

GGGTAAGCACTGAGGC (sugars k3 d10 k3, PS)
target mRNA inhibition (SK-MEL-28, 4 µM): 61%

GGGTATTTATAACCGG (sugars k3 d10 k3, PS)
target mRNA inhibition (MM.1R, 0.0625 µM): -16% and 5% and 1%
target mRNA inhibition (MM.1R, 0.074 µM): -4%
target mRNA inhibition (MM.1R, 0.222 µM): -19%
target mRNA inhibition (MM.1R, 0.666 µM): -4%
target mRNA inhibition (MM.1R, 1 µM): 1% and 7% and 26%
target mRNA inhibition (MM.1R, 2 µM): 9%
target mRNA inhibition (MM.1R, 4 µM): 12% and 24% and 34%
target mRNA inhibition (SK-MEL-28, 4 µM): 59%

GGGTGGTAGAATGTGA (sugars k3 d10 k3, PS)
target mRNA inhibition (MM.1R, 1 µM): 33%

GGTAATCTTCTGGATT (sugars k3 d10 k3, PS)
target mRNA inhibition (SK-MEL-28, 4 µM): 30%

GGTAGTAGACCACAGT (sugars k3 d10 k3, PS)
target mRNA inhibition (MM.1R, 1 µM): 23%

GGTCAAAAAGATGCAG (sugars k3 d10 k3, PS)
target mRNA inhibition (SK-MEL-28, 4 µM): 51%

GGTCAACACTTGGAGA (sugars k3 d10 k3, PS)
target mRNA inhibition (MM.1R, 1 µM): -23%

GGTCATACCCTGGATC (sugars k3 d10 k3, PS)
target mRNA inhibition (SK-MEL-28, 4 µM): 49%

GGTCTGAGTTGTACAG (sugars k3 d10 k3, PS)
target mRNA inhibition (MM.1R, 1 µM): 20%

GGTGAGAGACGAAAAC (sugars k3 d10 k3, PS)
target mRNA inhibition (MM.1R, 1 µM): -16%

GGTGTGTAAGGTCTGA (sugars k3 d10 k3, PS)
target mRNA inhibition (SK-MEL-28, 4 µM): 41%

GGTTGGCTGGTCTTTG (sugars k2 d9 e3 k2, PS)
target mRNA inhibition (MM.1R, 0.0625 µM): 44%
target mRNA inhibition (MM.1R, 0.25 µM): 52%
target mRNA inhibition (MM.1R, 1 µM): 69% and 65%
target mRNA inhibition (MM.1R, 4 µM): 84%

GTAAAGCCCAAAGTTA (sugars k3 d10 k3, PS)
target mRNA inhibition (SK-MEL-28, 4 µM): 27%

GTAAAGGAGTGCAGGA (sugars k3 d10 k3, PS)
target mRNA inhibition (SK-MEL-28, 4 µM): 9%

GTAACAACGACACACG (sugars k3 d10 k3, PS)
target mRNA inhibition (SK-MEL-28, 4 µM): 59%

GTAACAGGCTATCAGG (sugars k3 d10 k3, PS)
target mRNA inhibition (SK-MEL-28, 4 µM): 45%

GTAATAGTAAATATCC (sugars k3 d10 k3, PS)
target mRNA inhibition (SK-MEL-28, 4 µM): 61%

GTACTTGCCGCTGTCG (sugars k4 d8 k4, PS)
target mRNA inhibition (SK-MEL-28, 4 µM): 36%

GTACTTTCTCAAAACC (sugars k3 d10 k3, PS)
target mRNA inhibition (SK-MEL-28, 4 µM): 70%

GTAGTATGAGAAACGG (sugars k3 d10 k3, PS)
target mRNA inhibition (SK-MEL-28, 4 µM): 83% and 80%

GTATGAGAAACGGCCT (sugars k3 d10 k3, PS)
target mRNA inhibition (SK-MEL-28, 4 µM): 59%
